Several values for one entry are separate records, joined by “and”; a condition that tells them apart may be missing. Equal values may be shown once. One block for each compound: values may come before it.
Legend:
[1] = Stability in oven at 60° C. for two weeks (HPLC purity, XRPD); type: physicochemical; conditions: for HPLC Purity (%) 60° C.: after two weeks at 60° C.; for HPLC Purity (%) Starting: before storage; for Stability relative to Amorphous Compound 1 / XRPD change after storage: two weeks at 60° C.; for HPLC Purity (%) Degradation: two weeks at 60° C. versus starting
Protocol: Amorphous Compound 1, Compound 1 Fumarate Form E, and Compound 1 Fumarate Form A Anhydrate were placed in an oven at 60° C. for two weeks to evaluate their stability.

[2] = Bulk density (untapped, graduated cylinder); type: physicochemical
Protocol: Bulk density of Compound 1 Fumarate Form E was measured by gently introducing a known sample mass into a graduated cylinder (50 mL), leveling the powder without compacting it, and recording the apparent untapped volume to the nearest graduated unit.

[3] = Dynamic vapor sorption (DVS), hygroscopicity; type: physicochemical; conditions: for Hygroscopicity (%), water uptake: 25° C./80% RH
Protocol: DVS was performed using Intrinsic DVS ([…], UK). About 30-50 mg of sample was placed in a sample basked and hung in the measuring chamber. For an isotherm test, the chamber temperature was maintained by a water bath at a constant 25±1° C. The sample was tested at a targeted RH from 0 to 90% full cycle in step mode. The analysis was performed in 10% RH increments. Time duration at each RH was set as 60 min so that the sample could reach equilibrium with the chamber environment. Data were collected in 20 s increments.

[4] = Competitive slurry experiments Form E / Form A Anhydrate (XRPD); type: physicochemical; conditions: 25° C. or 40° C.
Protocol: Competitive slurry experiments were performed with Compound 1 Fumarate Form E and Compound 1 Fumarate Form A Anhydrate, as follows:
Experiment #1: Compound 1 Fumarate Form E (100 mg), Compound 1 Fumarate Form A Anhydrate (100 mg), and isopropanol (2 mL) were added into two 8-mL vials and mixed well in a shaker at 25° C. and 40° C., respectively. Samples for analysis were taken at 24 h and 72 h.
Experiment #2: Compound 1 Fumarate Form E (100 mg), Compound 1 Fumarate Form A Anhydrate (100 mg), and water (2 mL) were added into two 8-mL vials and mixed well in a shaker at 25° C. and 40° C., respectively. Samples for analysis were taken at 24 h and 72 h.
Experiment #3: Compound 1 Fumarate Form E (100 mg), Compound 1 Fumarate Form A Anhydrate (100 mg), and ethyl acetate (2 mL) were added into two 8-mL vials and mixed well in a shaker at 25° C. and 40° C., respectively. Samples for analysis were taken at 24 h and 72 h.

[5] = Solubility in solvents, dynamic method; type: physicochemical; conditions: for solubility at 15 min: organic solvent or mixture, thermodynamic from solid, dynamic method
Protocol: […] Solubility was measured by the dynamic method and gravimetric method.
Dynamic method: Under the condition of a certain amount of solute and certain temperature, solvent was gradually added with stirring for 15 min to reach equilibrium. When solute is completely dissolved, amount of solvent was recorded and the solubility calculated.

[6] = Solubility, gravimetric method; type: physicochemical; conditions: H2O, 25° C.; for solubility: gravimetric method
Protocol: Solubility studies of Compound 1 and Compound 1 Fumarate in different solvents at 25° C. were performed. Solubility was measured by the dynamic method and gravimetric method.
Gravimetric method: Excess solids and a certain amount of solvent were added 8 mL vials, stirred for 24 hours, and filtered.

[7] = co-former acid of salt screen; cited from earlier work
[8] = Kinetic solubility of Fumarate Form A Ethyl Acetate Solvate, solvent aliquot addition; type: physicochemical; conditions: thermodynamic from solid, ambient temperature
Protocol: The screen consisted primarily of long term slurry experiments. To help design screen experiments, kinetic solubilities of Fumarate Form A Ethyl Acetate Solvate were estimated. The estimation was done on a 3-11 mg scale using a solvent aliquot addition method, and dissolution was judged by visual observation. Solubilities are estimated at ambient temperature and reported to the nearest mg/mL; if complete dissolution was achieved by one aliquot addition, solubilities were reported as “>”;

Compound: O=C(O)CO [Glycolic Acid]
pKa [7]: 3.28

Compound: O=C(O)c1cc2ccccc2c(Cc2c(O)c(C(=O)O)cc3ccccc23)c1O [Pamoic Acid]
pKa [7]: 2.51

Compound: O=C1CC[C@@H](C(=O)O)N1 [(−)-L-Pyroglutamic acid]
pKa [7]: 3.32

Compound: CCCN1CC(Oc2ccc([C@@H]3c4[nH]c5ccccc5c4C[C@@H](C)N3CC(C)(C)F)cc2)C1.O=C(O)/C=C/C(=O)O
solubility ([8]; aqueous with cosolvent or surfactant or cyclodextrin, IPA/water (50/50)): > 124000 µg/mL
solubility ([8]; organic solvent or mixture, 2-BuOH): 17000 µg/mL
solubility ([8]; organic solvent or mixture, 2-MeTHF): 32000 µg/mL
solubility ([8]; organic solvent or mixture, ACN, re-precipitated after first aliquot): < 2000 µg/mL
solubility ([8]; organic solvent or mixture, Anisole): < 1000 µg/mL
solubility ([8]; organic solvent or mixture, DCE): < 9000 µg/mL
solubility ([8]; organic solvent or mixture, DCE/EtOH (96/4)): ≥ 8000 µg/mL
solubility ([8]; organic solvent or mixture, Dioxane): > 104000 µg/mL
solubility ([8]; organic solvent or mixture, IPA): 20000 µg/mL
solubility ([8]; organic solvent or mixture, MIBK): 4000 µg/mL
solubility ([8]; organic solvent or mixture, MTBE): 2000 µg/mL
solubility ([8]; organic solvent or mixture, TFE): > 100000 µg/mL
solubility ([8]; organic solvent or mixture, t-BuOAc, re-precipitated after first aliquot): 1000 µg/mL

Continued, in another order:

HPLC Purity (%) 60° C. [1]: 99.50%
HPLC Purity (%) Starting [1]: 99.54%
Stability relative to Amorphous Compound 1 [1]: improved stability
XRPD change after storage [1]: No change
HPLC Purity (%) Degradation [1]: −0.05%
Bulk Density, Average ([2]; average of three runs): 0.1239 g/mL
Hygroscopicity by DVS (in words) ([3]; 25° C., 0 to 90% RH cycle): not hygroscopic
Outcome of competitive slurry (XRPD) ([4]; isopropanol, after 24 h): more stable than Form A Anhydrate
Solubility in isopropanol (in words) ([5]; 25° C.): very low solubility
Change of solubility with increasing proportion of heptane ([5]; isopropanol/heptane, 25° C.): decreased significantly
solubility at 15 min ([5]; IPA, 0° C.): < 1000 µg/mL
solubility at 15 min ([5]; IPA, 25° C.): ~8460 µg/mL
solubility at 15 min ([5]; IPA/heptane (1/1), 25° C.): ~2350 µg/mL
solubility at 15 min ([5]; IPA/heptane (1/3), 25° C.): < 1000 µg/mL
solubility at 15 min ([5]; IPA/heptane (5/1), 25° C.): 5890 µg/mL
solubility at 15 min ([5]; IPA/heptane (5/3), 25° C.): ~3570 µg/mL
Solubility compared with Compound 1 Fumarate Form A Anhydrate [6]: much lower solubility
solubility [6]: 1000 µg/mL
Compound: CCCN1CC(Oc2ccc([C@@H]3c4[nH]c5ccccc5c4C[C@@H](C)N3CC(C)(C)F)cc2)C1.O=C(O)/C=C/C(=O)O [Compound 1 Fumarate Form E]
Bulk Density ([2]; single runs 1-3, untapped): 0.1288 g/mL and 0.1233 g/mL and 0.1196 g/mL
Outcome of competitive slurry (XRPD) ([4]; ethyl acetate, after 72 h): a mixture of Compound 1 Fumarate Form E and Compound 1 Fumarate Form A Anhydrate remained
Outcome of competitive slurry (XRPD) ([4]; water, after 72 h): a mixture of Compound 1 Fumarate Form E and Compound 1 Fumarate Form A Anhydrate remained

HPLC Purity (%) 60° C. [1]: 99.54%
HPLC Purity (%) Starting [1]: 99.58%
Stability relative to Amorphous Compound 1 [1]: improved stability
XRPD change after storage [1]: No change
HPLC Purity (%) Degradation [1]: −0.04%
Hygroscopicity (%), water uptake [3]: hygroscopic (0.108) %
Form Change after DVS? [3]: No
solubility [6]: 6500 µg/mL
Compound: CCCN1CC(Oc2ccc([C@@H]3c4[nH]c5ccccc5c4C[C@@H](C)N3CC(C)(C)F)cc2)C1.O=C(O)/C=C/C(=O)O [Compound 1 Fumarate Form A Anhydrate]
Outcome of competitive slurry (XRPD) ([4]; ethyl acetate, after 72 h): a mixture of Compound 1 Fumarate Form E and Compound 1 Fumarate Form A Anhydrate remained
Outcome of competitive slurry (XRPD) ([4]; isopropanol, after 24 h): completely transformed into Compound 1 Fumarate Form E
Outcome of competitive slurry (XRPD) ([4]; water, after 72 h): a mixture of Compound 1 Fumarate Form E and Compound 1 Fumarate Form A Anhydrate remained

Solubility in isopropanol (in words) ([5]; 25° C.): relatively low solubility
Compound: O=C(O)/C=C/C(=O)O [Fumaric acid]

HPLC Purity (%) 60° C. [1]: 98.94%
HPLC Purity (%) Starting [1]: 99.23%
XRPD change after storage [1]: No change
HPLC Purity (%) Degradation [1]: −0.29%
Hygroscopicity (%), water uptake [3]: hygroscopic (0.463) %
Form Change after DVS? [3]: No
Solubility in isopropanol (in words) ([5]; 25° C.): high solubility
Compound: CCCN1CC(Oc2ccc([C@@H]3c4[nH]c5ccccc5c4C[C@@H](C)N3CC(C)(C)F)cc2)C1 [Amorphous Compound 1, (1R,3R)-2-(2-fluoro-2-methylpropyl)-3-methyl-1-(4-((1-propylazetidin-3-yl)oxy)phenyl)-2,3,4,9-tetrahydro-1H-pyrido[3,4-b]indole]
